Experiments:
animal model of anaemia = animal model of anaemia (Jain et al., 2019; Joharapurkar et al., 2018); cited from earlier work
ischemia condition = conditions: cited from earlier work
[1] = test system: erythroid progenitor cells in bone marrow of anemic rats; experiment: Erythroid progenitor cells in bone marrow of cisplatin/turpentine oil anemic rats; format: in vivo; conditions: 15 mg/kg, PO, alternate day, two weeks
Method: The anaemia was induced by cisplatin (5 mg/kg, IP, single dose) and turpentine oil (5 mL/kg, SC, twice a week) administration for four weeks. The compound of formula (Ia) (15 mg/kg, PO, alternate day) treatment was initiated after two weeks of cisplatin/turpentine oil administration. After two weeks of compound of formula (Ia) treatment, animals were euthanized and bone marrow was isolated. Bone marrow smear was prepared and stain with May-Grunwald stain and Giemsa stain. The ratio of erythroid progenitor cell: total cells were expressed as percentage.

isolated RBCs [2] = experiment: PHZ-induced reactive oxygen species (DCFDA/DCF) in isolated RBCs; format: cell-based, C57BL/6J; conditions: PHZ 10 μM, RBC suspension
Method: (§1) The RBC was isolated from healthy male C57BL/6J (6-8 weeks old) into a heparinized tube. The RBC pellet was isolated by centrifugation. The RBC pellet was washed three time with glucose supplemented phosphate buffered saline (PBS). The final RBC pellet was diluted 1:4 with glucose supplemented PBS. The RBC suspension was incubated with compound of formula (Ia) at 0.05, 0.5 and 5 μM concentration for 30 min at 37° C. Then the phenylhydrazine (10 μM) was added to all groups and incubated for further 30 min at 37° C. After that 2,7-Dichlorofluorescin-diacetate (DCFDA, 400 μM) was added to the RBC suspension and incubated for 30 min at 37° C. After incubation, the RBC suspension was washed two times with glucose-PBS, and RBC were lysed with 200 μL of ice-cold 0.1% Triton X100 and then incubated for 30 min in darkness at room temperature. After 30 min incubation, the fluorescence of all samples was read (excitation wavelength: 485 nm and emission wavelength: 538 nm). The concentration of 2,7-Dichlorofluorescin (DCF) was calculated from the DCF standard curve. For thiobarbituric acid reactive substances (TBARS) measurement, RBC lysate was used and malondialdehyde was measured using thiobarbituric acid method (Patel V et al., 2018).

isolated RBCs [3] = experiment: TBARS (malondialdehyde, thiobarbituric acid method) in RBC lysate after PHZ; format: cell-based, C57BL/6J; conditions: PHZ 10 μM
Method: as §1

[4] = test system: PHZ-induced haemolytic anaemia; experiment: Phenylhydrazine (PHZ)-induced haemolytic anaemia in mice; format: in vivo, mice (male C57BL/6J); conditions: 15 mg/kg, PO, daily day -1 to day 5; PHZ-treated mice
Method: Male C57BL/6J (6-8 weeks old) were used in the study. Mice were treated with phenylhydrazine (PHZ) on day 0, day 1 and day 3. The PHZ was given by intraperitoneally route at 40 mg/kg on day 0, and 20 mg/kg on day 1 and 3. Vehicle control or compound of formula (Ia) (15 mg/kg, PO) was given daily from day −1 to day 5. At the end of treatment period, whole blood samples were processed for haemoglobin, RBC and haematocrit measurement. The serum samples were analyzed for total iron content. The effect on oxidative and inflammatory markers will be analyzed.

[5] = ischemia condition (Joharapurkar et al., 2021)
[6] = oxidative stress (Joharapurkar et al., 2021)

| SMILES | HIF stabilization (animal model of anaemia) | erythropoiesis (animal model of anaemia) | IL-1β levels (ischemia condition; [5]) | IL-6 levels (ischemia condition; [5]) | malondialdehyde (MDA) (ischemia condition; [6]) | superoxide dismutase (SOD) (ischemia condition; [6]) | increase in % erythroid progenitor cells compared with vehicle control [1] [fold] | decrease of ROS (DCF concentration) compared with vehicle control (isolated RBCs [2]; 0.05 μM) [%] | decrease of ROS (DCF concentration) compared with vehicle control (isolated RBCs [2]; 0.5 μM) [%] | decrease of ROS (DCF concentration) compared with vehicle control (isolated RBCs [2]; 5 μM) [%] | decrease of TBARS levels compared with vehicle control (isolated RBCs [3]; 0.05 μM) [%] | decrease of TBARS levels compared with vehicle control (isolated RBCs [3]; 0.5 μM) [%] | decrease of TBARS levels compared with vehicle control (isolated RBCs [3]; 5 μM) [%] | decrease in serum iron levels [4] [%] | increase in HCT level compared with PHZ control [4] [%] | increase in RBC level compared with PHZ control [4] [%] | increase in hemoglobin level compared with PHZ control [4] [%] |
| --- | --- | --- | --- | --- | --- | --- | --- | --- | --- | --- | --- | --- | --- | --- | --- | --- | --- |
| O=C(O)CNC(=O)c1c(O)c2ccccc2n(OCC2CC2)c1=O [Desidustat] | stabilizes HIF | induces erythropoiesis | reduced | reduced | decreases | decreases |  |  |  |  |  |  |  |  |  |  |  |
| O=C(O)CNC(=O)c1c(O)c2ccccc2n(OCC2CC2)c1=O [compound of formula (Ia)] |  |  |  |  |  |  | 2.2±0.5 | 9.6±8.9 | 25.5±3.8 | 35.1±1.7 | 5.5±4.0 | 21.8±4.0 | 27.3±4.0 | 26.0±7.6 | 37.7±5.7 | 44.2±10.4 | 36.4±6.2 |
